Reference: patent EP4707280A1, “1,4-CINEOLE DERIVATIVE AND INTERMEDIATE THEREOF, HERBICIDE CONTAINING SAID DERIVATIVE AS ACTIVE INGREDIENT, METHOD FOR USING HERBICIDE, AND METHOD FOR PREPARING AGROCHEMICAL COMPOSITION” (HOKKO CHEMICAL INDUSTRY CO., LTD., priority 2023, dated 2024)

Tests used:
Format in all cases: in vivo
[1] = test system: Echinochloa crus-galli var. formosensis; assay: Test Example 1: herbicidal effect test by soil application in paddy rice; settings: Echinochloa crus-galli, soil, 336 h; 120 g active ingredient per 10 ares; applied immediately after sowing, flooded pots; 14 days after application; read-out: weed inhibition rate
In short: (§1)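 Weeds sown 0–1 cm deep (30 seeds each) into fertilized, puddled paddy soil in Wagner pots. Pots are flooded immediately, water held near 3 cm, and the diluted emulsifiable concentrate is dripped in at once, delivering 120 g active ingredient per 10 ares under glass-greenhouse management.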

Scirpus juncoides [2] = assay: as above; settings: Schoenoplectiella juncoides, soil, 336 h; 120 g active ingredient per 10 ares; applied immediately after sowing, flooded pots; 14 days after application; read-out: weed inhibition rate
In short: as §1

[3] = test system: Echinochloa crus-galli var. formosensis; assay: Test Example 2: herbicidal effect test by application during growth period of paddy rice; settings: Echinochloa crus-galli; 120 g per 10 ares; applied seven days after sowing, flooded pots; 14 days after application; read-out: weed inhibition rate
In short: (§2)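 Paddy soil in flooded pots (water depth about 3 cm) was sown with weed seeds and kept in a glass greenhouse. Seven days after sowing, a diluted emulsifiable concentrate was applied by dropper at 120 g active ingredient per 10 ares. Weed inhibition was evaluated 14 days after application, in duplicate.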

Scirpus juncoides [4] = assay: as above; settings: Schoenoplectiella juncoides; 120 g per 10 ares; applied seven days after sowing, flooded pots; 14 days after application; read-out: weed inhibition rate
In short: as §2

Digitaria ciliaris [5] = assay: Test Example 3: herbicidal effect test by soil application in upland field; settings: Digitaria ciliaris, 120 g per 10 ares, sprayed one day after sowing, 14 days after application, read-out: weed inhibition rate
In short: (§3)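 Pre-emergence test: seeds mixed into top 1 cm of alluvial loam upland soil in pots; emulsifiable concentrate diluted in water sprayed on soil one day after sowing at 100 L/10 a, 120 g a.i./10 a. Weed inhibition rate (%) scored at 14 days, in duplicate.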

Echinochloa crus-galli [6] = assay: as above; settings: Echinochloa crus-galli, 120 g per 10 ares, sprayed one day after sowing, 14 days after application, read-out: weed inhibition rate
In short: as §3

Digitaria ciliaris [7] = assay: Test Example 4: herbicidal effect test by stem and leaf treatment in upland field; settings: Digitaria ciliaris; 120 g per 10 ares; sprayed seven days after sowing, upland soil; 14 days after application; read-out: weed inhibition rate
Echinochloa crus-galli [8] = assay: as above; settings: Echinochloa crus-galli; 120 g per 10 ares; sprayed seven days after sowing, upland soil; 14 days after application; read-out: weed inhibition rate
[9] = test system: Echinochloa crus-galli var. formosensis; assay: Test Example 5: herbicidal effect test by soil application in paddy rice (low dose); settings: Echinochloa crus-galli, soil, 336 h; 7.5 g per 10 ares; applied immediately after sowing, flooded pots; 14 days after application; read-out: weed inhibition rate
In short: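 Paddy-soil pots, weeds sown 0–1 cm deep and flooded to about 3 cm in a greenhouse. Emulsifiable concentrate diluted in water and dropped in right after sowing at 7.5 g active ingredient per 10 ares. Duplicates; effect scored 14 days after application.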

[10] = test system: Echinochloa crus-galli var. formosensis; assay: Test Example 6: herbicidal effect test by application during growth period of paddy rice (low dose); settings: Echinochloa crus-galli; 7.5 g per 10 ares; applied seven days after sowing, flooded pots; 14 days after application; read-out: weed inhibition rate
In short: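 Paddy-soil pots, flooded ~3 cm after sowing weed seeds at 0-1 cm depth, greenhouse-grown. Seven days after sowing, diluted emulsifiable concentrate applied by dropper at 7.5 g active ingredient per 10 ares. Weed inhibition rate (%) scored 14 days after application, in duplicate.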

Digitaria ciliaris [11] = assay: Test Example 7: herbicidal effect test by soil application in upland field (low dose); settings: Digitaria ciliaris, 7.5 g per 10 ares, sprayed one day after sowing, 14 days after application, read-out: weed inhibition rate
In short: (§4)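 Upland alluvial loam pots, seeds mixed into top 1 cm of soil; one day after sowing, diluted emulsifiable concentrate sprayed on soil at 100 L/10 a, giving 7.5 g active ingredient/10 a. Duplicate pots; weed inhibition rate (%) scored 14 days after application.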

Echinochloa crus-galli [12] = assay: as above; settings: Echinochloa crus-galli, 7.5 g per 10 ares, sprayed one day after sowing, 14 days after application, read-out: weed inhibition rate
In short: as §4

Digitaria ciliaris [13] = assay: Test Example 8: herbicidal effect test by stem and leaf treatment in upland field (low dose); settings: Digitaria ciliaris; 7.5 g per 10 ares; sprayed seven days after sowing, upland soil; 14 days after application; read-out: weed inhibition rate
Echinochloa crus-galli [14] = assay: as above; settings: Echinochloa crus-galli; 7.5 g per 10 ares; sprayed seven days after sowing, upland soil; 14 days after application; read-out: weed inhibition rate

CC(C)[C@]12C[C@@H](OCc3ccccc3Cl)[C@](C)(C[C@@H]1Cl)O2 [1-13, (1R,2S,4S,5R)-2-chloro-5-[(2-chlorophenyl)methoxy]-1-isopropyl-4-methyl-7-oxabicyclo[2.2.1]heptane]
≥ 80%: pest or weed control at 1200 g/ha [1] | pest or weed control at 1200 g/ha (Scirpus juncoides [2]) | inhibition at 1200 g/ha [3] | inhibition at 1200 g/ha (Scirpus juncoides [4]) | inhibition at 1200 g/ha (Digitaria ciliaris [5]) | inhibition at 1200 g/ha (Echinochloa crus-galli [6]) | inhibition at 1200 g/ha (Digitaria ciliaris [7]) | inhibition at 1200 g/ha (Echinochloa crus-galli [8]) | inhibition at 75 g/ha [9] | inhibition at 75 g/ha [10] | inhibition at 75 g/ha (Digitaria ciliaris [11]) | inhibition at 75 g/ha (Echinochloa crus-galli [12]) | inhibition at 75 g/ha (Digitaria ciliaris [13]) | inhibition at 75 g/ha (Echinochloa crus-galli [14])

CC(C)=CCO[C@@H]1C[C@@]2(C(C)C)C=C[C@]1(C)O2 [3-693, (1R,4S,5R)-1-isopropyl-4-methyl-5-(3-methylbut-2-enoxy)-7-oxabicyclo[2.2.1]hept-2-ene]
≥ 80%: pest or weed control at 1200 g/ha [1] | pest or weed control at 1200 g/ha (Scirpus juncoides [2]) | inhibition at 1200 g/ha [3] | inhibition at 1200 g/ha (Scirpus juncoides [4]) | inhibition at 1200 g/ha (Digitaria ciliaris [5]) | inhibition at 1200 g/ha (Echinochloa crus-galli [6]) | inhibition at 1200 g/ha (Digitaria ciliaris [7]) | inhibition at 1200 g/ha (Echinochloa crus-galli [8]) | inhibition at 75 g/ha [9] | inhibition at 75 g/ha [10] | inhibition at 75 g/ha (Digitaria ciliaris [11]) | inhibition at 75 g/ha (Echinochloa crus-galli [12]) | inhibition at 75 g/ha (Digitaria ciliaris [13]) | inhibition at 75 g/ha (Echinochloa crus-galli [14])

CC(C)C12CC(OCc3c(Cl)cccc3Cl)C(C)(CC1I)O2 (stereo not shown) [1-1447, 5-[(2,6-dichlorophenyl)methoxy]-2-iodo-1-isopropyl-4-methyl-7-oxabicyclo[2.2.1]heptane]
≥ 80%: pest or weed control at 1200 g/ha [1] | pest or weed control at 1200 g/ha (Scirpus juncoides [2]) | inhibition at 1200 g/ha [3] | inhibition at 1200 g/ha (Scirpus juncoides [4]) | inhibition at 1200 g/ha (Digitaria ciliaris [5]) | inhibition at 1200 g/ha (Echinochloa crus-galli [6]) | inhibition at 1200 g/ha (Digitaria ciliaris [7]) | inhibition at 1200 g/ha (Echinochloa crus-galli [8]) | inhibition at 75 g/ha [9] | inhibition at 75 g/ha [10] | inhibition at 75 g/ha (Digitaria ciliaris [11]) | inhibition at 75 g/ha (Echinochloa crus-galli [12]) | inhibition at 75 g/ha (Digitaria ciliaris [13]) | inhibition at 75 g/ha (Echinochloa crus-galli [14])

CC(C)C12CC(OCc3ccsc3)C(C)(CC1I)O2 (stereo not shown) [1-1457, 2-iodo-1-isopropyl-4-methyl-5-(3-thienylmethoxy)-7-oxabicyclo[2.2.1]heptane]
≥ 80%: pest or weed control at 1200 g/ha [1] | pest or weed control at 1200 g/ha (Scirpus juncoides [2]) | inhibition at 1200 g/ha [3] | inhibition at 1200 g/ha (Scirpus juncoides [4]) | inhibition at 1200 g/ha (Digitaria ciliaris [5]) | inhibition at 1200 g/ha (Echinochloa crus-galli [6]) | inhibition at 1200 g/ha (Digitaria ciliaris [7]) | inhibition at 1200 g/ha (Echinochloa crus-galli [8]) | inhibition at 75 g/ha [9] | inhibition at 75 g/ha [10] | inhibition at 75 g/ha (Digitaria ciliaris [11]) | inhibition at 75 g/ha (Echinochloa crus-galli [12]) | inhibition at 75 g/ha (Digitaria ciliaris [13]) | inhibition at 75 g/ha (Echinochloa crus-galli [14])

CCNC(=O)O[C@H]1C[C@]2(C)O[C@@]1(C(C)C)C[C@H]2OCc1ccccc1F [1-1615, [(1R,2S,4S,5R)-5-[(2-fluorophenyl)methoxy]-1-isopropyl-4-methyl-7-oxabicyclo[2.2.1]heptan-2-yl] N-ethylcarbamate]
≥ 80%: pest or weed control at 1200 g/ha [1] | pest or weed control at 1200 g/ha (Scirpus juncoides [2]) | inhibition at 1200 g/ha [3] | inhibition at 1200 g/ha (Scirpus juncoides [4]) | inhibition at 1200 g/ha (Digitaria ciliaris [5]) | inhibition at 1200 g/ha (Echinochloa crus-galli [6]) | inhibition at 1200 g/ha (Digitaria ciliaris [7]) | inhibition at 1200 g/ha (Echinochloa crus-galli [8]) | inhibition at 75 g/ha [9] | inhibition at 75 g/ha [10] | inhibition at 75 g/ha (Digitaria ciliaris [11]) | inhibition at 75 g/ha (Echinochloa crus-galli [12]) | inhibition at 75 g/ha (Digitaria ciliaris [13]) | inhibition at 75 g/ha (Echinochloa crus-galli [14])
